Results published in patent US11815435B2, “Beta glucan immunopharmacodynamics” (HiberCell, Inc., priority 2017, dated 2023).

Tested on: anti-β-glucan antibody (ABA IgG, ABA IgM)
Assay: Example 1: IgG and IgM ABA levels in a cancer subject on IVIG, IMPRIME PGG and pembrolizumab
Type: in vivo, human
Settings: same subject and regimen
Procedure: Soluble β-glucan immunotherapy was administered to a subject diagnosed with glucaganoma. The subject's ABA level prior to immunotherapy treatment placed them in the Low-ABA subgroup, and therefore, their ABA level was boosted by administration of IVIG. GAMMAGARD at 100 mg/ml was intravenously administered prior to each treatment, which provided 161 μg ABA/ml. […] Each cycle was 3 weeks.

pembrolizumab [reference compound]
ABA IgG (cycle 1, day 2 EOI pembro): 18.2 µg/mL | ABA IgM (cycle 1, day 2 EOI pembro): 5.3 µg/mL | ABA IgG (cycle 2, day 1 EOI-pembro): 49.4 µg/mL | ABA IgM (cycle 2, day 1 EOI-pembro): 9.6 µg/mL | ABA IgG (cycle 3, day 1 EOI-pembro): 60.7 µg/mL
